Patent publication US20240400584A1, “COMPOUNDS AND METHODS FOR MODULATING SPLICING” (REMIX THERAPEUTICS INC., priority 2021, published 2024)

How the values were obtained:
HTT = test: RT-qPCR splicing assay, HTT AJ/CJ mRNA; type: cell-based, human; settings: A673 or K562 cells; for IC50: decrease in canonical junction mRNA; for AC50: increase in alternative junction mRNA
Method in brief: (§1)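 Cells: A673 (DMEM/10% FBS) or K562 (IMDM/10% FBS). Dosing: 11-pt 3-fold, top 10 uM final, DMSO ≤0.25%, 24 h, 37° C. Readout: one-step RT-qPCR on lysate, CJ vs AJ isoforms; ΔCt vs housekeeper, ΔΔCt vs DMSO, 2^(−ΔΔCt) RQ → % response.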

MYB [1] = test: RT-qPCR splicing assay, MYB AJ/CJ mRNA; type: cell-based; settings: Homo sapiens, A673 or K562 cells, 24 hours; for IC50: decrease in canonical junction mRNA; for AC50: increase in alternative junction mRNA
Method in brief: as §1

MYB [2] = test: Gene panel canonical junction qPCR assay, MYB CJ mRNA (Table 7); type: cell-based; settings: Homo sapiens, read-out: MYB CJ mRNA decrease IC50
Method in brief: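 Treated K562 or A673 cells; measured CJ mRNA by cDNA synthesis and qPCR, 2^(−ΔΔCt) against housekeeper and DMSO. IC50 marks half-maximal CJ decrease.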

SMILES | IC50 (HTT; Homo sapiens, 24 h) | AC50 (HTT; Homo sapiens, 24 h) | IC50 (MYB [1]) | AC50 (MYB [1]) | IC50 (MYB [2]) | IC50 (HTT; 24 hours) | AC50 (HTT; 24 hours) | IC50 (HTT; Homo sapiens, 24 hours) | AC50 (HTT; Homo sapiens, 24 hours)
COc1cc(-c2ccc3c(c2)COc2nc(N(C)[C@@H]4C[C@H]5CC[C@@H](C4)N5)ccc2-3)cnn1 [Compound 159] | < 100 nM | < 100 nM | < 100 nM | < 100 nM | < 100 nM | – | – | – | –
CN(c1ccc2c(c1)CCOc1cc(-n3cccn3)ccc1-2)[C@@H]1C[C@H]2CC[C@@H](C1)N2 [Compound 113] | > 10000 nM | > 10000 nM | > 10000 nM | > 10000 nM | > 10000 nM | – | – | – | –
CN(c1ccc2c(c1)OCc1cc(-c3cn[nH]c3)ccc1-2)[C@@H]1C[C@H]2CC[C@@H](C1)N2 [Compound 104] | > 10000 nM | > 10000 nM | > 10000 nM | > 10000 nM | > 10000 nM | – | – | – | –
COc1cc(-c2ccc3c(c2)COc2nc(O[C@@H]4C[C@H]5COC[C@@H](C4)N5)ccc2-3)cnn1 [Compound 290, (exo)-7-{[8-(6-methoxypyridazin-4-yl)-6H-isochromeno[3,4-b]pyridin-3-yl]oxy}-3-oxa-9-azabicyclo[3.3.1]nonane] | < 100 nM | 100 to 1000 nM | 100 to 1000 nM | 100 to 1000 nM | 100 to 1000 nM | – | – | – | –
CC1(C)CC(Nc2ccc3c(n2)OCc2cc(-n4cccn4)ccc2-3)CC(C)(C)N1 [Compound 165] | 100 to 1000 nM | 100 to 1000 nM | 1000 to 10000 nM | 100 to 1000 nM | 1000 to 10000 nM | – | – | – | –
CN(c1ccc2c(n1)OCc1cc(-n3ccnn3)ccc1-2)[C@@H]1C[C@H]2CC[C@@H](C1)N2 [Compound 152] | 100 to 1000 nM | < 100 nM | 100 to 1000 nM | 100 to 1000 nM | 100 to 1000 nM | – | – | – | –
CN(c1ccc2c(n1)OCc1cc(-c3cn[nH]c3)ccc1-2)[C@@H]1C[C@H]2CC[C@@H](C1)N2 [Compound 108] | < 100 nM | < 100 nM | 100 to 1000 nM | 1000 to 10000 nM | 100 to 1000 nM | – | – | – | –
CN(c1ccc2c(c1)COc1cc(-n3cccn3)ccc1-2)C1CC(C)(C)NC(C)(C)C1 [Compound 117] | > 10000 nM | > 10000 nM | 1000 to 10000 nM | > 10000 nM | 1000 to 10000 nM | – | – | – | –
CN(c1cnc2c(n1)OCc1cc(-c3cn[nH]c3)ccc1-2)C1CC(C)(C)NC(C)(C)C1 [Compound 142] | – | – | 100 to 1000 nM | 1000 to 10000 nM | 100 to 1000 nM | 100 to 1000 nM | 100 to 1000 nM | – | –
COc1cc(-c2ccc3c(c2)COc2nc(N4CCN[C@@H](C)C4)ccc2-3)cnn1 [Compound 287] | 100 to 1000 nM | 100 to 1000 nM | 1000 to 10000 nM | 1000 to 10000 nM | 1000 to 10000 nM | – | – | – | –
COc1cc(-c2ccc3c(c2)COc2nc(N4CCC(N(C)C)C4)ccc2-3)cnn1 (stereo not drawn) [Compound 306, 1-[8-(6-methoxypyridazin-4-yl)-6H-isochromeno[3,4-b]pyridin-3-yl]-N,N-dimethylpyrrolidin-3-amine] | 100 to 1000 nM | 1000 to 10000 nM | 1000 to 10000 nM | 1000 to 10000 nM | 1000 to 10000 nM | – | – | – | –
C[C@@H]1C[C@H](N(C)c2ccc3c(c2)OCc2cc(-c4cn[nH]c4)ccc2-3)CCN1 [Compound 101] | – | > 10000 nM | > 10000 nM | 1000 to 10000 nM | > 10000 nM | – | – | – | –
Cc1cn(-c2ccc3c(c2)COc2nc(N(C)[C@@H]4C[C@H]5CC[C@@H](C4)N5)ccc2-3)cn1 [Compound 164] | < 100 nM | < 100 nM | 100 to 1000 nM | 100 to 1000 nM | 100 to 1000 nM | – | – | – | –
CN(c1ccc2c(n1)OCc1cc(-n3nccn3)ccc1-2)[C@@H]1C[C@H]2CC[C@@H](C1)N2 [Compound 151] | < 100 nM | < 100 nM | 100 to 1000 nM | 100 to 1000 nM | 100 to 1000 nM | – | – | – | –
CN(c1ccc2c(n1)OCc1cc(-n3cccn3)ccc1-2)[C@@H]1C[C@H]2CC[C@@H](C1)N2 [Compound 149] | 100 to 1000 nM | < 100 nM | 100 to 1000 nM | 100 to 1000 nM | 100 to 1000 nM | – | – | – | –
CN(c1ccc2c(n1)COc1cc(-n3cccn3)ccc1-2)C1CC(C)(C)NC(C)(C)C1 [Compound 125] | > 10000 nM | > 10000 nM | > 10000 nM | > 10000 nM | > 10000 nM | – | – | – | –
CC1(C)CC(Nc2ccc3c(c2)COc2cc(-n4cccn4)ccc2-3)CC(C)(C)N1 [Compound 118] | > 10000 nM | > 10000 nM | > 10000 nM | > 10000 nM | > 10000 nM | – | – | – | –
c1cc2c(cc1-c1cn[nH]c1)COc1nc(N3CCC34CCNC4)ccc1-2 (stereo not drawn) [Compound 207] | – | – | 1000 to 10000 nM | 100 to 1000 nM | 1000 to 10000 nM | – | – | – | –
CN(c1ccc2c(n1)OCc1cc(-c3ccc(=O)[nH]c3)ccc1-2)[C@@H]1C[C@H]2CC[C@@H](C1)N2 [Compound 157] | 1000 to 10000 nM | 1000 to 10000 nM | 1000 to 10000 nM | 1000 to 10000 nM | 1000 to 10000 nM | – | – | – | –

SMILES | IC50 (HTT; Homo sapiens, 24 h) | AC50 (HTT; Homo sapiens, 24 h) | IC50 (MYB [1]) | AC50 (MYB [1]) | IC50 (MYB [2]) | IC50 (HTT; 24 hours) | AC50 (HTT; 24 hours) | IC50 (HTT; Homo sapiens, 24 hours) | AC50 (HTT; Homo sapiens, 24 hours)
CN(c1ccc2c(n1)COc1cc(-c3cn[nH]c3)ccc1-2)[C@@H]1C[C@H]2CC[C@@H](C1)N2 [Compound 121] | 100 to 1000 nM | 100 to 1000 nM | 1000 to 10000 nM | 1000 to 10000 nM | 1000 to 10000 nM | – | – | – | –
Cc1ncc(-c2ccc3c(c2)COc2nc(O[C@@H]4C[C@H]5C[C@@H](C4)N5)ccc2-3)s1 [Compound 208] | – | – | 100 to 1000 nM | 100 to 1000 nM | 100 to 1000 nM | – | – | – | –
C[C@H]1C[C@H](N(C)c2ccc3c(c2)OCc2cc(-c4cn[nH]c4)ccc2-3)CCN1 [Compound 102] | > 10000 nM | > 10000 nM | > 10000 nM | 1000 to 10000 nM | > 10000 nM | – | – | – | –
CC(C)Oc1cnnc(-c2ccc3c(c2)COc2nc(N4CCC(NC(C)(C)C)C4)ccc2-3)c1 (stereo not drawn) [Compound 286] | > 10000 nM | > 10000 nM | > 10000 nM | > 10000 nM | > 10000 nM | – | – | – | –
CN(c1cnc2c(n1)OCc1cc(-c3cn[nH]c3)ccc1-2)[C@@H]1C[C@H]2CC[C@@H](C1)N2 [Compound 144] | 100 to 1000 nM | 100 to 1000 nM | 100 to 1000 nM | 100 to 1000 nM | 100 to 1000 nM | – | – | – | –
CN(c1ccc2c(n1)OCCc1cc(-c3cn[nH]c3)ccc1-2)C1CC(C)(C)NC(C)(C)C1 [Compound 145] | > 10000 nM | > 10000 nM | 1000 to 10000 nM | > 10000 nM | 1000 to 10000 nM | – | – | – | –
CN(c1ccc2c(n1)OCc1cc(-c3cnc(=O)[nH]c3)ccc1-2)[C@@H]1C[C@H]2CC[C@@H](C1)N2 [Compound 161] | > 10000 nM | > 10000 nM | > 10000 nM | > 10000 nM | > 10000 nM | – | – | – | –
CN(c1ccc2c(n1)OCc1cc(-n3ccnc3)ccc1-2)[C@@H]1C[C@H]2CC[C@@H](C1)N2 [Compound 163] | < 100 nM | < 100 nM | 100 to 1000 nM | < 100 nM | 100 to 1000 nM | – | – | – | –
Cc1ncc(-c2ccc3c(c2)COc2nc(N(C)[C@@H]4C[C@H]5CC[C@@H](C4)N5)ccc2-3)o1 [Compound 155] | < 100 nM | < 100 nM | 100 to 1000 nM | 100 to 1000 nM | 100 to 1000 nM | – | – | – | –
CN(c1ccc2c(c1)OCc1cc(-n3cccn3)ccc1-2)[C@@H]1C[C@H]2CC[C@@H](C1)N2 [Compound 105] | – | – | > 10000 nM | > 10000 nM | > 10000 nM | – | – | > 10000 nM | > 10000 nM
CN(c1ccc2c(n1)CCOc1cc(-n3cccn3)ccc1-2)C1CC(C)(C)NC(C)(C)C1 [Compound 129] | > 10000 nM | > 10000 nM | > 10000 nM | > 10000 nM | > 10000 nM | – | – | – | –
CN(c1ccc2c(n1)OCc1cc(-c3cc(=O)n(C)cn3)ccc1-2)[C@@H]1C[C@H]2CC[C@@H](C1)N2 [Compound 162] | < 100 nM | < 100 nM | 100 to 1000 nM | < 100 nM | 100 to 1000 nM | – | – | – | –
CN(c1ccc2c(n1)OCc1cc(-n3cccn3)ccc1-2)C1CC(C)(C)NC(C)(C)C1 [Compound 148] | 1000 to 10000 nM | 1000 to 10000 nM | 1000 to 10000 nM | 1000 to 10000 nM | 1000 to 10000 nM | – | – | – | –
COc1cc(-c2ccc3c(c2)COc2nc(N(C)[C@@H]4C[C@H]5CC[C@@H](C4)N5)ccc2-3)ccn1 [Compound 156] | < 100 nM | < 100 nM | 100 to 1000 nM | 100 to 1000 nM | 100 to 1000 nM | – | – | – | –
CN(c1ccc2c(n1)COc1cc(-n3cccn3)ccc1-2)[C@@H]1C[C@H]2CC[C@@H](C1)N2 [Compound 124] | – | – | 1000 to 10000 nM | > 10000 nM | 1000 to 10000 nM | 1000 to 10000 nM | 1000 to 10000 nM | – | –
CN(c1ccc2c(n1)OCCc1cc(-c3cn[nH]c3)ccc1-2)[C@@H]1C[C@H]2CC[C@@H](C1)N2 [Compound 146] | 1000 to 10000 nM | 1000 to 10000 nM | > 10000 nM | > 10000 nM | > 10000 nM | – | – | – | –
CN(c1ccc2c(n1)OCc1cc(-c3ccc(=O)n(C)c3)ccc1-2)[C@@H]1C[C@H]2CC[C@@H](C1)N2 [Compound 158] | 100 to 1000 nM | 100 to 1000 nM | 100 to 1000 nM | 1000 to 10000 nM | 100 to 1000 nM | – | – | – | –
CN(c1ccc2c(n1)OCc1cc(-c3ccn(C)c(=O)c3)ccc1-2)[C@@H]1C[C@H]2CC[C@@H](C1)N2 [Compound 153] | < 100 nM | < 100 nM | 100 to 1000 nM | < 100 nM | 100 to 1000 nM | – | – | – | –
